Results on five molecules are retold here after paper PMC10951269, “5-HT_FAsTR: a versatile, label-free, high-throughput, fluorescence-based microplate assay to quantify serotonin transport and release” (Scientific Reports, 2024).

Read-outs that look alike come from different tables or passages of the source.

The subject of one data set is iSeroSnFR. Nature of the data set: Dose-response of 5-HT binding to extracellular membrane-tethered iSeroSnFR. In kind it is cell-based. To be noted: HEK293MSR cells, not saturated at 10 mM 5-HT. The text has this: Error bars represent SEM.
(2 pictures or pasted objects on this page, not shown here)

In data set [1] the test system is hSERT mutant I172M. To be noted: fluorescence assay; 10 µM 5-HT; N = 3. The protocol: (§1) For the uptake inhibition assay determining IC50 values, the pre-incubation solutions contained 12 increasing concentrations of an hSERT or OCT2 inhibitor. […] The change in fluorescence was determined 10 min after adding the incubation solution. […] The raw data was fitted to a non-linear fit in GraphPad Prism ([inhibitor] vs response (three parameters) for hSERT data and [inhibitor] vs response – variable slope (four parameters) for hOCT2 data) and normalized to the obtained top and bottom plateau as follows: rawdata-bottomplateau/topplateau-bottomplateau . The same non-linear fit of the normalized data was used to calculate logIC50 and IC50 values. IC50 values were converted to pKi values using the Cheng-Prusoff equation[33]. pKi=pIC50/1+[S]/Km

Data set [2] deals with T1, hSERT (Homo sapiens, UniProt P31645). Nature of the data set: 5-HT_FAsTR fluorescence efflux assay.
The test system of data set [3] is hSERT mutant I172M. The following applies: radiotracer assay; 10 µM [3H]5-HT; N = 3. On the procedure: The uptake was terminated by washing the cells with ice-cold PBSCM, 50 µl Microscint (Perkin Elmer) was added and radioactivity was counted in a TopCounter microplate scintillation counter approximately one hour after microscint addition. The raw data was fitted to a non-linear fit in GraphPad Prism ([inhibitor] vs response (three parameters)) and normalized to the obtained top and bottom plateau as follows: rawdata-bottomplateau/topplateau-bottomplateau . The same non-linear fit of the normalized data was used to calculate logIC50 and IC50 values.

For data set [4], the target named is T1, hSERT. In kind it is cell-based. To be noted: 5 µM inhibitor, control experiment. Details: expressed in transfected cells; host or cells: HEK293MSR cells stably expressing cytoplasmic iSeroSnFR. The source says:
Data were fitted in Graphpad Prism to the in-built model for Michaelis–Menten kinetics using robust non-linear regression to calculate Km and Vmax.

A further data set concerns the target T2, hOCT2 (Homo sapiens, UniProt O15244).
T2 sequence (O15244 1-555): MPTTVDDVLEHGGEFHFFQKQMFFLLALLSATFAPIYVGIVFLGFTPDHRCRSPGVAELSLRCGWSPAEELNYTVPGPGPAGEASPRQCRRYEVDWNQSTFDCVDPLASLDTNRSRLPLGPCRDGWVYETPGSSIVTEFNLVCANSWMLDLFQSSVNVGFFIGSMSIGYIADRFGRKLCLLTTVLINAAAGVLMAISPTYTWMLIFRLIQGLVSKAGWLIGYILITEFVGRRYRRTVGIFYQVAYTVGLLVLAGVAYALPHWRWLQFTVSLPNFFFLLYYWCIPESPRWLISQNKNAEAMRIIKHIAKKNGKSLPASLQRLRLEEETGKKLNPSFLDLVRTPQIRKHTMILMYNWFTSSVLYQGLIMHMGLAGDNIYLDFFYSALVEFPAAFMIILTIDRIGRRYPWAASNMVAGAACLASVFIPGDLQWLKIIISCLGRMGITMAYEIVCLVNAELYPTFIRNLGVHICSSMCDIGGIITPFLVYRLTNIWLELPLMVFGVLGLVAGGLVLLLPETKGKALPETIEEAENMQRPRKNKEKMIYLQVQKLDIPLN
Description: 5-HT_FAsTR fluorescence uptake inhibition assay, hOCT2. In kind it is cell-based. The following applies: corresponding to the pKi. On the procedure: as §1

Another data set has as its system NCCc1c[nH]c2ccc(O)cc12. Nature of the data set: cells, lysate or membranes. The following applies: other: HEK293MSR_iSeroSnFR cells with hSERT, 10 min, N = 7, pH 7.4.
Substrate in data set [5]: NCCc1c[nH]c2ccc(O)cc12
Nature of the data set: cells, lysate or membranes. The following applies: other: hOCT2-transfected cells; non-specific uptake determined with imipramine; N = 3; pH 7.4.

T1 sequence (P31645 whole entry): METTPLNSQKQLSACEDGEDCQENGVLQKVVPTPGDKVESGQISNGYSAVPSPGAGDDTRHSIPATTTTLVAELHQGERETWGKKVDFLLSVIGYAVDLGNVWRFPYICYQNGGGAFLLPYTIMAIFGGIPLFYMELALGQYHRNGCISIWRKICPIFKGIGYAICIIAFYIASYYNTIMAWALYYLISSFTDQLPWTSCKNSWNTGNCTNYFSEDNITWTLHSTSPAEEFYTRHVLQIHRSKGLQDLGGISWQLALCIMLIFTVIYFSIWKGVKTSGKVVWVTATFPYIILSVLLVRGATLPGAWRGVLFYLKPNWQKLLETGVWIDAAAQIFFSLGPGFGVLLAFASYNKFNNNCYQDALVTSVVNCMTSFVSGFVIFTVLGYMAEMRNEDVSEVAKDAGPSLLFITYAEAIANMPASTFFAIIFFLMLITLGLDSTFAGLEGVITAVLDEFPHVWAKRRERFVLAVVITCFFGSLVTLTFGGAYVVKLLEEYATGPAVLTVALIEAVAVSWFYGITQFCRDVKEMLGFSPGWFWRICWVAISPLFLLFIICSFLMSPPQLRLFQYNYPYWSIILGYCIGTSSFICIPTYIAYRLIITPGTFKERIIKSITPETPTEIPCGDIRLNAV

Molecule `NCCc1c[nH]c2ccc(O)cc12` [5-HT, 5-hydroxytryptamine] showed an EC50 in the data set on iSeroSnFR of at least 1520 µM.

In the case of `CNC(C)Cc1ccc2c(c1)OCO2` (stereo not drawn) [MDMA], the “fold decrease in potency, hSERT I172M compared to wild type (IC50 ratio)” value in the data set on hSERT mutant I172M [1] and with hSERT mutant I172M [3] was “did not show any change” throughout. A half-maximal effect at hSERT [2] (EC50) was put at 6.22 ± 1.62 µM. Moreover, the “fluorescence change ± SEM (drug-induced efflux rate)” value at hSERT [2] (hSERT not present (empty vector), preloaded with 5-HT, N = 3) was determined as 0.06 ± 0.01 %/minute. At hSERT [2] (hSERT-transfected cells preloaded with 10 µM 5-HT, N = 6), the “maximum fluorescence change ± SEM (drug-induced efflux rate)” value is reported as 0.66 ± 0.13 %/minute. Besides, the “release of 5-HT relative to background levels from passive diffusion” value on hSERT [2] (hSERT-transfected cells vs background) is recorded as “at least 11 fold”.

Regarding `C[Se+](C)CCCN1c2ccccc2CCc2ccc(Cl)cc21` [MJ1-53], the “effect of blocking the serotonin transporter on 5-HT uptake (fluorescence intensity)” value on hSERT [4] is “abolishes 5-HT uptake”. The same molecule displayed a Ki at hOCT2 of 0.164 µM.

Turning to hSERT (Homo sapiens), the figures for the Km in the data set with NCCc1c[nH]c2ccc(O)cc12 (non-specific uptake determined with MJ1-53) and with NCCc1c[nH]c2ccc(O)cc12 (non-specific uptake determined with S-Citalopram) were 1.25 ± 0.48 µM and 1.79 ± 0.19 µM, respectively.

B1: hOCT2 (Homo sapiens) (protein)
chain: MPTTVDDVLEHGGEFHFFQKQMFFLLALLSATFAPIYVGIVFLGFTPDHRCRSPGVAELSLRCGWSPAEELNYTVPGPGPAGEASPRQCRRYEVDWNQSTFDCVDPLASLDTNRSRLPLGPCRDGWVYETPGSSIVTEFNLVCANSWMLDLFQSSVNVGFFIGSMSIGYIADRFGRKLCLLTTVLINAAAGVLMAISPTYTWMLIFRLIQGLVSKAGWLIGYILITEFVGRRYRRTVGIFYQVAYTVGLLVLAGVAYALPHWRWLQFTVSLPNFFFLLYYWCIPESPRWLISQNKNAEAMRIIKHIAKKNGKSLPASLQRLRLEEETGKKLNPSFLDLVRTPQIRKHTMILMYNWFTSSVLYQGLIMHMGLAGDNIYLDFFYSALVEFPAAFMIILTIDRIGRRYPWAASNMVAGAACLASVFIPGDLQWLKIIISCLGRMGITMAYEIVCLVNAELYPTFIRNLGVHICSSMCDIGGIITPFLVYRLTNIWLELPLMVFGVLGLVAGGLVLLLPETKGKALPETIEEAENMQRPRKNKEKMIYLQVQKLDIPLN
With B1, in data set [5], the Michaelis-Menten constant (Km) is 183.6 ± 65.18 µM.
